Where a name gives a salt, the structure may show the parent alone. Read-outs that look alike come from different tables or passages of the source.
Legend:
[1] = system: BRAF-mutant melanoma (518A2); assay: Growth inhibition (MTT) in 518A2 melanoma cells; assay type: cell-based, human
[2] = system: resistant colon (HT-29) cell line; assay: Growth inhibition (MTT) in HT-29 colon cancer cells; assay type: cell-based, human
[3] = system: resistant breast (MCF-7/Topo) cell line; assay: Growth inhibition in MCF-7/Topo breast cancer cells; assay type: cell-based
[4] = system: resistant cervix carcinoma (KB-V1/Vbl) cell line; assay: Growth inhibition in KB-V1/Vbl cervix carcinoma cells; assay type: cell-based; settings: Homo sapiens, 72 h, read-out: IC50 KB-V1/Vbl
[5] = system: hybrid endothelial cells (Ea.hy926); assay: Growth inhibition in Ea.hy926 cells; assay type: cell-based; settings: for IC50: Homo sapiens, EA.hy 926, 72 h
[6] = system: primary endothelial cells (HUVEC, human umbilical vein endothelial cells); assay: Growth inhibition in HUVEC; assay type: cell-based; settings: for IC50: 72 h
[7] = system: non-malignant fibroblasts (CF, chicken fibroblasts); assay: Growth inhibition in chicken fibroblasts; assay type: cell-based; settings: Gallus gallus, Fibroblast, 72 h
518A2 melanoma cells = assay: Western blot of 518A2 cell lysates: caspase-9 cleavage and histone H2B acetylation; assay type: cell-based, human; settings: 518A2 cells; for acetylation of histone proteins (H2B) and alpha-tubulin after drug treatment: Western blot
Method: Western blot analysis of 518A2 cell lysates after drug treatment (3-24 h).

[8] = system: acetylated lysine residues in alpha-tubulin, 518A2 melanoma cells; assay: Immunoblot for acetylated alpha-tubulin in 518A2 cells; assay type: cell-based, human; settings: […] or 5 μM, 24 h, versus SAHA 5 μM
Source text: Cell lysates were subjected to gel electrophoresis and immunoblotting for acetylated lysine residues in alpha-tubulin (55 kDa).

[9] = system: EGF-stimulated MCF-7/Topo cells; assay: Matrigel-Transwell-Migration Assay; assay type: cell-based; settings: EGF 200 ng/mL, 48 h
Method: FIG. 6: Influence of imidazole-based HDAC inhibitors Et-Animacroxam (compound 3) and Bimacroxam (compound 4) on resistance factors in tumor cell lines. A: Western blot analysis of Akt-phosphorylation (phospho-Akt) in 518A2 and MCF-7/Topo cell lysates (10 μg protein each) after 6 h of incubation. […] The amount of invasive cells was determined after calcein treatment via fluorescence measurement and DMSO-treated controls without EGF were set to 100%.

Tolerance in Balb/c mice = assay type: in vivo; settings: two Balb/c mice
Source text: FIG. 8: Tolerance of Et-Animacroxam (compound 3) in two Balb/c mice (x-axis: day 1-7; y-axis: weight in gram).

[10] = system: 1411HP xenograft (Cisplatin-resistant testicular cancer); assay: 1411HP xenograft model; assay type: in vivo, mouse; settings: 150 mg/kg i.p.
Method: FIG. 9: Activity of Et-Animacroxam (compound 3) in the 1411HP xenograft model (left: before treatment; right: 24 h after treatment with 150 mg/kg i.p. of Et-Animacroxam).

recombinant human HDAC1 = recombinant human HDAC1 (Homo sapiens, UniProt Q13547); assay: Fluorescence-based HDAC activity assay, recombinant HDAC1; settings: for fold less efficacious than vorinostat on HDAC1: relative to vorinostat IC50
Method: (§1) Briefly, cell pellets from mass cultures were resuspended and incubated in cell extraction buffer (20 mM HEPES, 10 mM KCl, 0.1 mM EDTA, 0.1 mM EGTA, 1.5 mM MgCl2, 0.5 mM DTT) containing 0.1% Triton X-100 to lyse cell membranes and leave intact nuclei. After centrifugation (3,000 g, 2 min), the supernatant containing cytosolic proteins was aspirated from the nuclei pellet and the protein concentration of the cytosolic fraction was determined by a standard Bradford assay (Pierce/Thermo Scientific).
(§2) A fluorescence-based HDAC activity assay was used to assess the compound specificity for distinct HDAC classes. […] The Fluor-de-Lys substrate used allows to measure broad-spectrum HDAC activity from extracts or recombinant protein.

recombinant human HDAC6 = biological target: T1, recombinant human HDAC6 (Homo sapiens, UniProt Q9UBN7); assay: Fluorescence-based HDAC activity assay, recombinant HDAC6
T1 sequence (Q9UBN7 1-1215): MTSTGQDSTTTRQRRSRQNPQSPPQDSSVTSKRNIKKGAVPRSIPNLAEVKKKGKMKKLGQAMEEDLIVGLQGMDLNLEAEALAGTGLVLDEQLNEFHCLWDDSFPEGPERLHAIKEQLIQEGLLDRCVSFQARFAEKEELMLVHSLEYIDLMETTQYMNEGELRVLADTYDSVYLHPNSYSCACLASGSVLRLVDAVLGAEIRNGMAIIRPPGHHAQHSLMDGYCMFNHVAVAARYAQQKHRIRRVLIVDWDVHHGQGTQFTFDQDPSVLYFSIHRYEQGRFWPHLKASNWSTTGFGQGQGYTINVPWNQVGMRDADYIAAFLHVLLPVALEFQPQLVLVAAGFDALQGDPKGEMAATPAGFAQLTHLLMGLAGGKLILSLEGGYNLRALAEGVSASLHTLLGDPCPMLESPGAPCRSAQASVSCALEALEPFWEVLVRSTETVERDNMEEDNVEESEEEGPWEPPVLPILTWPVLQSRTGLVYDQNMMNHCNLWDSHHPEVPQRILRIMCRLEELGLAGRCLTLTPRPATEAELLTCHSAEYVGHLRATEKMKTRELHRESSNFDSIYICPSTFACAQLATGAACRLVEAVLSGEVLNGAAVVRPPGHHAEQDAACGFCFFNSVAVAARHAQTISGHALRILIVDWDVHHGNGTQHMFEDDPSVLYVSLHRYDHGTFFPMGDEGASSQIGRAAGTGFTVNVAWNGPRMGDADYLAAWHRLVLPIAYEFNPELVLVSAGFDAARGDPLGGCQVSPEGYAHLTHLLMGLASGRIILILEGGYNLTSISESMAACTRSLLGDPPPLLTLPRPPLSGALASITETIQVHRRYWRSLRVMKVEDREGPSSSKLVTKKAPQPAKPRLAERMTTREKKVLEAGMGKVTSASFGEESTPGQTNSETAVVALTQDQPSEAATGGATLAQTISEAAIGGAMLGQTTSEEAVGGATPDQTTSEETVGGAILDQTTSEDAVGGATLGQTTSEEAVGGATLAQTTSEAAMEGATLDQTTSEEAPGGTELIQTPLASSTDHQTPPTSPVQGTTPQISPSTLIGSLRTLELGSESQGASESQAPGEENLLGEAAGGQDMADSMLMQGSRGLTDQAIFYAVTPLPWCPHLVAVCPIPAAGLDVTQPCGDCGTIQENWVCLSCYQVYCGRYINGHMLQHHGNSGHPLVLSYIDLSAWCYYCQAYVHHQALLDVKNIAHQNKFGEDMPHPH
Source text: as §2

[11] = system: HDAC active isolates from HeLa nuclear extract; assay: Fluorescence-based HDAC activity assay, HeLa nuclear extract; settings: read-out: HDAC inhibition IC50, HeLa nuclear extract; 0.5 μg extract, 25 μM Fluor-de-Lys substrate, 60 min
Method: as §1, §2

[12] = system: HDAC active isolates from HeLa cytosolic extract; assay: Fluorescence-based HDAC activity assay, HeLa cytosolic extract; settings: for IC50: read-out: HDAC inhibition IC50, HeLa cytosolic extract, 1 μg extract, 25 μM Fluor-de-Lys substrate, 60 min
Method: as §1, §2

[13] = system: HDAC active isolates from HeLa nuclear extract; settings: 0.5 μg extract, 25 μM Fluor-de-Lys substrate, 60 min; read-out: HDAC inhibition IC50, HeLa nuclear extract (values from Mahal et al. 2015); cited from earlier work

Chain of recombinant human HDAC1 (Q13547 whole entry): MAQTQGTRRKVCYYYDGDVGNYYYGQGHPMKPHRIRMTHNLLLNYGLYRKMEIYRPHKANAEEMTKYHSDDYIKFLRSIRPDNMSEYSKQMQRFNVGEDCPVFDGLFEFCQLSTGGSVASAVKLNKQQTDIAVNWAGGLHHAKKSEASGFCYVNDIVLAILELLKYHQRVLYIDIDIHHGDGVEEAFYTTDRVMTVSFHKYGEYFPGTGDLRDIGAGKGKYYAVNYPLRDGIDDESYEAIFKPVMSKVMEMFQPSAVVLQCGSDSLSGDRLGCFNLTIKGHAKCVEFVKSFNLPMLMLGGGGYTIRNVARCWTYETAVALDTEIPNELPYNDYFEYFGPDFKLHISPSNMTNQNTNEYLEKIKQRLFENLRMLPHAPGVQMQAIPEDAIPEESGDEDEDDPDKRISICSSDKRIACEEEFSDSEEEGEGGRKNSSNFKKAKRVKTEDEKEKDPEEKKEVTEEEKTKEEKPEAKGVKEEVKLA

Structure (SMILES)	IC50 ([1]; Homo sapiens, 518A2, 72 h) [nM]	IC50 ([2]; Homo sapiens, HT-29, 72 h) [nM]	IC50 [4] [nM]	IC50 [5] [nM]	IC50 ([6]; Homo sapiens, HUVEC) [nM]	IC50 [7] [nM]	acetylation of histone proteins (H2B) and alpha-tubulin after drug treatment (518A2 melanoma cells)	acetylated alpha-tubulin [8]	IC50 (recombinant human HDAC1) [nM]	fold less efficacious than vorinostat on HDAC1 (recombinant human HDAC1)	IC50 (recombinant human HDAC6) [nM]	IC50 [12] [nM]	IC50 ([1]; 72 h) [nM]	IC50 ([2]; 72 h) [nM]	also measured
Cn1cnc(-c2ccccc2)c1-c1ccc(/C=C/C(=O)NO)cc1 (as salt: HCl) [Compound 4, 1-Methyl-4-phenyl-5-(4′-hydroxyaminocarbonylethenyl-phenyl)-imidazole×HCl]	–	–	–	–	–	–	–	–	–	–	–	–	–	–	melting point: 189 to 190 °C
CCn1cnc(-c2ccc(OC)cc2)c1-c1ccc(/C=C/C(=O)NO)cc1 [Compound 3, 1-Ethyl-4-(4-methoxyphenyl)-5-(4′-hydroxyaminocarbonylethenyl-phenyl)-imidazole×HCl]	950 ± 190	450 ± 30	2910 ± 980	990 ± 130	1260 ± 450	> 50000	vastly acetylated	much higher extent compared with cells treated with SAHA	187 ± 37	ca. tenfold	66	36 ± 14	–	–	IC50 ([3]; Homo sapiens, MCF7/Topo, 72 h, read-out: IC50 MCF-7/Topo): 5600 ± 330 nM; apoptosis induction (caspase-9-cleavage) (518A2 melanoma cells; 3-24 h): leads to apoptosis induction (caspase-9-cleavage); invasiveness of MCF-7/Topo cells [9]: significantly reduced invasiveness; signs of toxicity (Tolerance in Balb/c mice; 2×20 mg/kg i.p. on two consecutive days): no signs of toxicity; weight of treated mice (Tolerance in Balb/c mice; 2×20 mg/kg i.p., day 1-7): roughly remained the same; diameter of bigger vessels of the tumor body ([10]; after 24 h): reduced significantly; visible side effects ([10]; mouse): did not cause any visible side effects; IC50 [11]: 504 ± 24 nM; times more active than vorinostat in the cytosolic fraction ([12]; HeLa cytosolic extract): ca. four; times more HDAC inhibiting in the cytosolic than in the nuclear fraction ([12]; HeLa cytosolic vs nuclear extract): ca. 14 times
Cn1cnc(-c2ccccc2)c1-c1ccc(/C=C/C(=O)NO)cc1 [Compound 4, 1-Methyl-4-phenyl-5-(4′-hydroxyaminocarbonylethenyl-phenyl)-imidazole×HCl]	2760 ± 620	1330 ± 70	5040 ± 1820	160 ± 30	550 ± 290	> 50000	vastly acetylated	much higher extent compared with cells treated with SAHA	28 ± 11	ca. twofold	107 ± 23	132 ± 14	–	–	IC50 ([3]; Homo sapiens, MCF7/Topo, 72 h; read-out: IC50 MCF-7/Topo): 15300 ± 1400 nM; fold stronger in the Ea.hy926 cell line compared with 3 and SAHA ([5]; Ea.hy926): 10 fold; fold stronger in primary endothelial cells compared with 3 and SAHA ([6]; HUVEC): 12 fold; IC50 [13]: 234 nM
Cn1cnc(-c2ccc(F)cc2)c1-c1ccc(C=CC(=O)NO)cc1 [Compound F-3, 1-Methyl-4-(4-fluorophenyl)-5-(4′-hydroxyaminocarbonylethenyl-phenyl)-imidazole×HCl]	–	–	–	–	–	–	–	–	–	–	–	–	1940 ± 40	1450 ± 60	–
COc1ccc(-c2ncn(C)c2-c2ccc(C=CC(=O)NO)cc2)cc1 [Compound Nor-3, 1-Methyl-4-(4-methoxyphenyl)-5-(4′-hydroxyaminocarbonylethenyl-phenyl)-imidazole×HCl]	–	–	–	–	–	–	–	–	–	–	–	–	1450 ± 70	710 ± 60	IC50 [6]: 830 ± 260 nM
Cn1cnc(-c2ccccc2)c1-c1cccc(C=CC(=O)NO)c1 [Compound iso-4, 1-Methyl-4-phenyl-5-(3′-hydroxyaminocarbonylethenyl-phenyl)-imidazole×HCl]	–	–	–	–	–	–	–	–	–	–	–	–	2230 ± 60	2800 ± 70	–

— US9868750B2, “4,5-diarylimidazole derivatives as HDAC inhibitors” (CHARITÉ—UNIVERSITÄTSMEDIZIN BERLIN, priority 2014, dated 2018)
